Assay results reported in US8937069B2, “Substituted pyrrolo[2,3-B]pyrazine compounds and their use” (Novartis AG, priority 2012, dated 2015).
pEC50: −log10 of the molar value.

Molecular target: T1, IP receptor (Homo sapiens, UniProt P43119)
T1 construct: expressed in transfected cells; host or cells: CHO cells stably expressing the IP receptor (CHO-IP)
Assay: cAMP accumulation in CHO cells stably expressing the IP receptor (CHO-IP), PerkinElmer AlphaScreen assay
Assay type: cell-based
Details: agonist activity, 1 hour at room temperature, 4-parameter logistic fit
Experimental: Activity of compounds at the IP receptor (IP receptor) is assessed by measuring cAMP accumulation in CHO cells stably expressing the IP receptor (CHO-IP) using the PerkinElmer AlphaScreen assay. This technology measures the endogenous production of cAMP, in a non-radioactive luminescence proximity homogenous assay. A biological reaction occurs between streptavidin coated donor beads, biotinylated cAMP and anti-cAMP acceptor beads, bringing the donor and acceptor beads close enough together so that upon excitation a fluorescence signal is produced. On production of endogenous cAMP, competition between the biotinylated cAMP and cellular-derived cAMP causes a reduction in the fluorescent signal. The reduction in signal is proportional to the amount of cAMP being produced, thus it is possible to quantify the amount of cAMP being produced on stimulation with agonist.
Test and reference compounds are prepared at 100×[final] in 100% DMSO, and diluted 1:3 using a Biomek Fx (Beckman Coulter). This is followed by an intermediate dilution to give 5×[final] in assay buffer (HBSS containing 5 mM HEPES, 0.1% (w/v) BSA). 5 μL of 5×[final] test compounds, reference compounds and buffer/DMSO control are then transferred to a 384-well white OptiPlate, containing 20 μL CHO-IP cell suspension (15,000 cells/well, prepared from frozen), and plate is incubated at room temperature for 1 hour. A cAMP standard curve is constructed for each experiment (concentration range of 10000 nM to 0.001 nM, in assay buffer) and 25 μL of each concentration added to the last two columns of the assay plate. The incubation is terminated by the addition of lysis buffer (dH2O; 0.3% (v v^−1) Tween-20) containing 20 units mL^−1 streptavidin coated donor beads and biotinylated cAMP (pre-incubated for 30 minutes) and 20 units mL^−1 anti-cAMP acceptor beads, which are added to the lysis buffer just before addition to the assay plate. The assay plate is then incubated at room temperature in the dark, for 60 minutes with gentle shaking, and read on the Envision plate reader (Perkin Elmer).
The raw data of the reference compounds, test compounds and controls are converted into cAMP concentrations, using the cAMP standard curve, in GraphPadPrism (GraphPad Software Inc). EC50 as well as maximal values of the agonist curves are determined using a 4-parameter logistic equation. The % maximum response values of all test compounds are determined using the top of the treprostinil concentration-response curve.

T1 sequence (P43119 whole entry): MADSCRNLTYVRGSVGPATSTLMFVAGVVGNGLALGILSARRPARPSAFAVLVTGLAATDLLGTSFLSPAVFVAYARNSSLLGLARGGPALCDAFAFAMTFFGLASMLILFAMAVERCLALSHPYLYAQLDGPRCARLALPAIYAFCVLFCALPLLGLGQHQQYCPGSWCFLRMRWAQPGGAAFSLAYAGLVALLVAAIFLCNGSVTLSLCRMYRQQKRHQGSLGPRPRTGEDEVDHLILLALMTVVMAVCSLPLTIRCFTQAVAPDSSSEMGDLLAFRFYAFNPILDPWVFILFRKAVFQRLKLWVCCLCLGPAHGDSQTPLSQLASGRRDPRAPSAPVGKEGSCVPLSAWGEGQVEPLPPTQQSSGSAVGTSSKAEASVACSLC

| pEC50 | Structure (SMILES) |
| --- | --- |
| 8.77 | Cc1ccc(-c2nc3cc(C4CC4)n(CCCCCCC(=O)O)c3nc2-c2ccc(C)cc2)cc1 [Example 1, 7-(6-Cyclopropyl-2,3-di-p-tolyl-5H-pyrrolo[2,3-b]pyrazin-5-yl)heptanoic acid] |
| 7.24 | CCOC(=O)CCCCCCn1c(C2CC2)cc2nc(-c3ccc(C)cc3)c(-c3ccc(C)cc3)nc21 [Example 1.1, Ethyl 7-(6-cyclopropyl-2,3-di-p-tolyl-5H-pyrrolo[2,3-b]pyrazin-5-yl)heptanoate] |
| 8.74 | Cc1ccc(-c2nc3cc(C(C)C)n(CCCCCCC(=O)O)c3nc2-c2ccc(C)cc2)cc1 [Example 1.2, 7-(6-Isopropyl-2,3-di-p-tolyl-pyrrolo[2,3-b]pyrazin-5-yl)-heptanoic acid] |
| 6.55 | CCOC(=O)CCCCCCn1c(C(C)C)cc2nc(-c3ccc(C)cc3)c(-c3ccc(C)cc3)nc21 [Example 1.3, ethyl 7-(6-isopropyl-2,3-di-p-tolyl-5H-pyrrolo[2,3-b]pyrazin-5-yl)heptanoate] |
| 7.74 | CCOC(=O)CCCCCCn1ccc2nc(-c3ccc(C)cc3)c(-c3ccc(C)cc3)nc21 [Example 1.4, 7-(2,3-Di-p-tolyl-pyrrolo[2,3-b]pyrazin-5-yl)-heptanoic acid ethyl ester] |
| 8.16 | Cc1ccc(-c2nc3ccn(CCCCCCC(=O)O)c3nc2-c2ccc(C)cc2)cc1 [Example 1.5, 7-(2,3-Di-p-tolyl-pyrrolo[2,3-b]pyrazin-5-yl)-heptanoic acid] |
| 8.15 | Cc1ccc(-c2nc3c(C=O)cn(CCCCCCC(=O)O)c3nc2-c2ccc(C)cc2)cc1 [Example 2.1, 7-(7-Formyl-2,3di-p-tolyl-5H-pyrrolo[2,3-b]pyrazin-5-yl)heptanoic acid] |
| 7.76 | Cc1ccc(-c2nc3c(CO)cn(CCCCCCC(=O)O)c3nc2-c2ccc(C)cc2)cc1 [Example 2.2, 7-(7-(Hydroxymethyl)-2,3-di-p-tolyl-5H-pyrrolo[2,3-b]pyrazin-5-yl)heptanoic acid] |
| 6.49 | CCOC(=O)CCCCCCn1cc(CO)c2nc(-c3ccc(C)cc3)c(-c3ccc(C)cc3)nc21 [Example 3, Ethyl 7-(7-(hydroxymethyl)-2,3-di-p-tolyl-5H-pyrrolo[2,3-b]pyrazin-5-yl)heptanoate] |
| 6.38 | CCOC(=O)CCCCCCn1cc(CNC(C)C)c2nc(-c3ccc(C)cc3)c(-c3ccc(C)cc3)nc21 [Example 4.1, Ethyl 7-(7-((isopropylamino)methyl)-2,3-di-p-tolyl-5H-pyrrolo[2,3-b]pyrazin-5-yl)heptanoate] |
| 7.10 | Cc1ccc(-c2nc3c(CNC(C)C)cn(CCCCCCC(=O)O)c3nc2-c2ccc(C)cc2)cc1 [Example 4.2, 7-(7-((Isopropylamino)methyl)-2,3-di-p-tolyl-5H-pyrrolo[2,3-b]pyrazin-5-yl)heptanoic acid] |
| 9.15 | COc1cc2nc(-c3ccc(C)cc3)c(-c3ccc(C)cc3)nc2n1CCCCCCC(=O)O [Example 5, 7-(6-Methoxy-2,3-di-p-tolyl-pyrrolo[2,3-b]pyrazin-5-yl)-heptanoic acid] |
| 8.74 | CCOC(=O)CCCCCCN1CCc2nc(-c3ccc(C)cc3)c(-c3ccc(C)cc3)nc21 [Example 6, Ethyl 7-(2,3-di-p-tolyl-6,7-dihydro-5H-pyrrolo[2,3-b]pyrazin-5-yl)heptanoate] |
| 6.49 | Cc1ccc(-c2nc3cc(CCCCC(=O)O)[nH]c3nc2-c2ccc(C)cc2)cc1 [Example 7, 5-(2,3-Di-p-tolyl-5H-pyrrolo[2,3-b]pyrazin-6-yl)-pentanoic acid] |
| 5.90 | Cc1ccc(-c2nc3cc(CCCCC(=O)NCC(=O)O)[nH]c3nc2-c2ccc(C)cc2)cc1 [Example 8, 2-(5-(2,3-Di-p-tolyl-5H-pyrrolo[2,3-b]pyrazin-6-yl)pentanamido)acetic acid] |
| 9.52 | Cc1ccc(-c2nc3cc(C)n(CCCCCCC(=O)O)c3nc2-c2ccc(C)cc2)cc1 [Example 9, 7-(6-Methyl-2,3-di-p-tolyl-5H-pyrrolo[2,3-b]pyrazin-5-yl)heptanoic acid] |

| pEC50 | Structure (SMILES) |
| --- | --- |
| 9.30 | O=C(O)CCCCCCn1c(C2CC2)cc2nc(-c3ccccc3)c(-c3ccccc3)nc21 [Example 10, 7-(6-Cyclopropyl-2,3-diphenyl-pyrrolo[2,3-b]pyrazin-5-yl)-heptanoic acid] |
| 8.62 | COc1ccc(-c2nc3cc(C4CC4)n(CCCCCCC(=O)O)c3nc2-c2ccc(C)cc2)cc1 [Example 10.1, 7-(6-cyclopropyl-2-(4-methoxy-phenyl)-3-(p-tolyl)-5H-pyrrolo[2,3-b]pyrazin-5-yl)heptanoic acid] |
| 8.25 | O=C(O)CCCCCCn1c(C2CC2)cc2nc(-c3ccc(Cl)cc3)c(-c3ccc(Cl)cc3)nc21 [Example 10.2, 7-(2,3-bis(4-chlorophenyl)-6-cyclopropyl-5H-pyrrolo[2,3-b]pyrazin-5-yl)heptanoic acid] |
| 8.17 | CCc1ccc(-c2nc3cc(C4CC4)n(CCCCCCC(=O)O)c3nc2-c2ccc(C)cc2)cc1 [Example 10.3, 7-(6-cyclopropyl-2-(4-ethylphenyl)-3-(p-tolyl)-5H-pyrrolo[2,3-b]pyrazin-5-yl)heptanoic acid] |
| 7.22 | Cc1cccc(-c2nc3cc(C4CC4)n(CCCCCCC(=O)O)c3nc2-c2cccc(C)c2)c1 [Example 10.4, 7-(6-cyclopropyl-2,3-di-m-tolyl-5H-pyrrolo[2,3-b]pyrazin-5-yl)heptanoic acid] |
| 8.36 | CCc1ccc(-c2nc3c(cc(C4CC4)n3CCCCCCC(=O)O)nc2-c2ccc(C)cc2)cc1 [Example 10.5, 7-(6-cyclopropyl-3-(4-ethylphenyl)-2-(p-tolyl)-5H-pyrrolo[2,3-b]pyrazin-5-yl)heptanoic acid] |
| 8.21 | COc1ccc(-c2nc3c(cc(C4CC4)n3CCCCCCC(=O)O)nc2-c2ccc(C)cc2)cc1 [Example 10.6, 7-(6-cyclopropyl-3-(4-methoxyphenyl)-2-(p-tolyl)-5H-pyrrolo[2,3-b]pyrazin-5-yl)heptanoic acid] |
| 7.43 | Cc1ccc(-c2nc3cc(C4CC4)n(CCCCCCC(=O)O)c3nc2-c2cccc(C)c2)cc1 [Example 10.7, 7-(6-cyclopropyl-3-(m-tolyl)-2-(p-tolyl)-5H-pyrrolo[2,3-b]pyrazin-5-yl)heptanoic acid] |
| 8.60 | Cc1ccc(-c2nc3c(cc(C4CC4)n3CCCCCCC(=O)O)nc2-c2cccc(C)c2)cc1 [Example 10.8, 7-(6-cyclopropyl-2-(m-tolyl)-3-(p-tolyl)-5H-pyrrolo[2,3-b]pyrazin-5-yl)heptanoic acid] |
| 8.80 | Cc1ccc(-c2nc3cc(CCO)n(CCCCCCC(=O)O)c3nc2-c2ccc(C)cc2)cc1 [Example 11, 7-(6-(2-Hydroxyethyl)-2,3-di-p-tolyl-5H-pyrrolo[2,3-b]pyrazin-5-yl)heptanoic acid] |
| 6.18 | Cc1ccc(-c2nc3cc(C4CC4)n(CCCCC(=O)O)c3nc2-c2ccc(C)cc2)cc1 [Example 12, 5-(6-Cyclopropyl-2,3-di-p-tolyl-5H-pyrrolo[2,3-b]pyrazin-5-yl)pentanoic acid] |
| 8.62 | Cc1ccc(-c2nc3cc(C4CC4)n(CCCCCC(=O)O)c3nc2-c2ccc(C)cc2)cc1 [Example 13, 6-(6-Cyclopropyl-2,3-di-p-tolyl-5H-pyrrolo[2,3-b]pyrazin-5-yl)hexanoic acid] |
| 8.38 | COCc1cn(CCCCCCC(=O)O)c2nc(-c3ccc(C)cc3)c(-c3ccc(C)cc3)nc12 [Example 14, 7-(7-(Methoxymethyl)-2,3-di-p-tolyl-5H-pyrrolo[2,3-b]pyrazin-5-yl)heptanoic acid] |
| 8.44 | Cc1ccc(-c2nc3c(nc2-c2ccc(C)cc2)N(CCCCCCC(=O)O)C(=O)C3)cc1 [Example 15, 7-(6-oxo-2,3-dip-tolyl-6,7-dihydro-5H-pyrrolo[2,3-b]pyrazin-5-yl)heptanoic acid] |
| 8.52 | Cc1ccc(-c2nc3cc(C(F)(F)F)n(CCCCCCC(=O)O)c3nc2-c2ccc(C)cc2)cc1 [Example 16, 7-(2,3-Dip-tolyl-6-(trifluoromethyl)-5H-pyrrolo[2,3-b]pyrazin-5-yl)heptanoic acid] |
| 9.30 | CCc1c(CC)n(CCCCCCC(=O)O)c2nc(-c3ccc(C)cc3)c(-c3ccc(C)cc3)nc12 [Example 17, 7-(6,7-Diethyl-2,3-di-p-tolyl-5H-pyrrolo[2,3-b]pyrazin-5-yl)heptanoic acid] |
